The values that follow come from patent US6864251B2, “Treatment of LTB4-mediated inflammatory disorders with optically-pure (R)-2,3-benzodiazepines” (Vela Pharmaceuticals, Inc., priority 2002, dated 2005).

One assay concerns the target LTB4 receptor (Cavia porcellus, UniProt H0VYV8). Nature of the assay: LTB4 binding assay, displacement of [3H]LTB4, guinea pig spleen membrane. (In general: In a radioligand displacement assay an active substance lowers the binding of a labelled ligand.)
For assay [1], the system named is LTB4-induced dermal inflammation. Nature of the assay: Rabbit model of LTB4-induced dermal inflammation, histopathology of intradermal challenge sites. The note with it: test article IP 60 mg/kg (dexamethasone 0.5 mg/kg), 4 hr after challenge. More on the design: key to Inflammation score / Edema score: 0=normal; T=trace; 1=minimal; 2=mild; 3=moderate; 4=marked. The class given is in vivo, New Zealand White Rabbits. As for the experimental part: Test compounds were prepared as follows. The vehicle was first prepared by dissolving […] of hydroxypropylmethylcellulose 2910 (HPMC)(Sigma Chemical, St. Louis, Mo.) in 50 mL of 0.9% saline to yield a concentration of 2% HPMC. The three test articles, (R)-, (S)- and racemic tofisopam, were formulated by adding 1 g of each test article to 10 mL of vehicle.
On Day 0, the rabbits were sedated with ketamine/xylazine (35/5 mg/kg, s.c.) and an area of approximately 8×14 cm on the back was closely and carefully clipped to expose the skin, but not inflame or otherwise damage the epithelium. A grid of ten squares each approximately 2.5×2.5 cm was drawn on each animal's back using an indelible marker. The animals were then dosed intraperitoneally with the appropriate test article corresponding to the group. Thirty minutes after dosing with test or control article, the animals were challenged intradermally with the LTB4 or LTB4-aminopropamide (LTB4-AP, a synthetic LTB4 agonist) in the appropriate site as shown in Table 4. Each injection site was marked with an indelible marker in order to identify the exact location of the intradermal injection site. Sixty minutes after challenge, the animals were treated again with tofisopam or control articles. The animals were sacrificed 4 hrs. after challenge, and the intradermal injection sites were excised, fixed in 10% neutral buffered formalin (NBF), and submitted for histopathology. H&E-stained sections were read by a board-certified veterinary pathologist using light microscopy.
All animals were sacrificed 4 hr after challenge. The intradermal challenge sites were excised, placed on unique cardboard squares, fixed in 10% NBF, and submitted for histopathology. The skin sections included the epidermis and the subcutis, down to the back musculature.
The marked skin sections were fixed for at least 48 hours on small cardboard squares. At gross trimming, three levels were cut through marked skin region in order to assure that the injection sites is brought into the plane of section. The skins were gross trimmed, processed by dehydration, embedded in paraffin, sectioned at 3-5 μm, and stained with hematoxylin and eosin.
The tissues were evaluated histopathologically via light microscopy by a board-certified veterinary pathologist. Initially, the identity of the slides was masked in order to perform the initial evaluation and rank the slides. The slides were then unmasked and there was a careful assessment of the lesions and careful comparison of the tofisopam-treated sites to the vehicle and positive control tissues. The lesions were graded based upon the degree of inflammation and the degree of edema. The severity of the inflammation and edema was keyed as follows: 0=normal; T=trace; 1=minimal; 2=mild; 3=moderate; 4=marked.

“And” between values parts separate entries of the source, which are not always exact repeats. Identical values can stand only once.

What is called Ki is a dissociation constant, usually derived from enzyme kinetics or from competition with a known ligand.

Chain of LTB4 receptor (H0VYV8 1-348): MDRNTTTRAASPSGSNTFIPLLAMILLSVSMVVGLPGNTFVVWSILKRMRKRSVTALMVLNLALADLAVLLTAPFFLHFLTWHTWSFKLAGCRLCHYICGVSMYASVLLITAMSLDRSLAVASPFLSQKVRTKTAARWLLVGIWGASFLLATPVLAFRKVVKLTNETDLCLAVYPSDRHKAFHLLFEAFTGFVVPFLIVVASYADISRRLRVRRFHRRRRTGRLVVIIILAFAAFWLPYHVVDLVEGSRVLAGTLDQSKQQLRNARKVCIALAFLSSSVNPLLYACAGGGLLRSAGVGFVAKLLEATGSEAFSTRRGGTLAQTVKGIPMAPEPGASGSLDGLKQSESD
Protocol for LTB4 receptor: Reactions were carried out in a phosphate buffer (pH 7.4) containing NaCl, MgCl2, EDTA, and bacitracin. The reaction volume of 150 μL containing 1.0 mg/mL of the Guinea pig spleen membrane preparation and 1 nM [^3H]LTB4, with or without a competitor, was incubated at 0-4° C. for 2 hours. Competitors included 2,3-benzodiazepines, and LTB4 as a control. The reaction was terminated by rapid vacuum filtration onto glass fiber filters. The filter was washed with cold buffer, dried and placed in a scintillation vial. Radioactivity trapped onto the filters was determined and compared to control values in order to ascertain any interactions of the test compound with the LTB4 binding site.

Molecule `CCCCC/C=C\C[C@@H](O)/C=C/C=C/C=C\[C@@H](O)CCCC(=O)O` [LTB4, Leukotriene B4] returned a Ki on LTB4 receptor of 0.2 to 0.9 nM.

Take `C[C@@H]1C[C@H]2[C@@H]3CCC4=CC(=O)C=C[C@]4(C)[C@@]3(F)[C@@H](O)C[C@]2(C)[C@@]1(O)C(=O)CO` [dexamethasone]: the Edema score in assay [1] (injection site: LTB4 500 ng) is 2 and 3; in assay [1] (injection site: LTB4 1000 ng), 2 and 3; in assay [1] (injection site: LTB4 2000 ng), 3 and 2 and 1; in assay [1] (injection site: LTB-ap 500 ng), 2 and 3; in assay [1] (injection site: LTB-ap 1000 ng), 3; in assay [1] (injection site: LTB-ap 2000 ng), 3 and 1 and 2. Further, the Edema score in assay [1] (injection site: Vehicle 0 ng) is 1 and 0. Besides, the Inflammation score in assay [1] (injection site: LTB4 500 ng) is 2 and 3; in assay [1] (injection site: LTB4 1000 ng), 3; in assay [1] (injection site: LTB-ap 500 ng) it was 3 and 2; in assay [1] (injection site: LTB-ap 1000 ng) it was 2; in assay [1] (injection site: LTB-ap 2000 ng), 2 and 1; in assay [1] (injection site: Vehicle 0 ng), 1 and 0.
